In ChEMBL document CHEMBL1201862, “PubChem BioAssay data set” (2004):
Active and inactive are the calls of the source.

Legend:
Coagulation factor XII = target: T1, Coagulation factor XII (Homo sapiens, UniProt P00748); type: functional;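 note: activated factor XIIa alpha cleaving a fluorogenic AMC peptide substrate; inhibitor potency from loss of enzyme activity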
T1 sequence (P00748 whole entry): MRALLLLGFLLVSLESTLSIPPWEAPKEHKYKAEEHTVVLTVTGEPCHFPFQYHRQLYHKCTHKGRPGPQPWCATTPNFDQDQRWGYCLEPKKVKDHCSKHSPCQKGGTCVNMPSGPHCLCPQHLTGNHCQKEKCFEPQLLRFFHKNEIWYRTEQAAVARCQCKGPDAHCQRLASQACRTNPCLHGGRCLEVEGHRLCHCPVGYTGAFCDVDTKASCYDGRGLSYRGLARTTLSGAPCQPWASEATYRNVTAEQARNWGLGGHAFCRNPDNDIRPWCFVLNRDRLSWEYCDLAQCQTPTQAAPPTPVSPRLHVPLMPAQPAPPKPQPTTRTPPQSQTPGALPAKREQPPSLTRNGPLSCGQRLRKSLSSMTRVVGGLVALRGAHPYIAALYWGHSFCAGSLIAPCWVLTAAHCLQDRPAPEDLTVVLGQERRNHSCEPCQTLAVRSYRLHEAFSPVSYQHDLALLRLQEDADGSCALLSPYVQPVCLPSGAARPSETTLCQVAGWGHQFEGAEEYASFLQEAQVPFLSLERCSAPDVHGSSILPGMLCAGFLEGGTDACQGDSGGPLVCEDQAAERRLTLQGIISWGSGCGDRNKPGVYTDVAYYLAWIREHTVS

[1] = target: Eukaryotic translation initiation factor 4E (Mus musculus, UniProt P63073); assay: eIF4E–eIF4G protein interaction inhibitors, dose response, biochemical, TR-FRET (AID 855); type: functional;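 note: potency for disrupting eIF4E binding to eIF4GI seen as loss of FRET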
[2] = A cytotoxicity screen of small molecule inhibitors of the PhoP region in Salmonella typhi identified in the primary screen. [Related pubchem assays: 1850, 1864, 1985 ]; type: functional
[3] = target: Nucleotide-binding oligomerization domain-containing protein 2 (Homo sapiens, UniProt Q9HC29); assay: NOD2 signaling inhibitors, cell-based, luminescence, uHTS, HEK293 (AID 1566); type: functional
Protein RecA = target: T2, Protein RecA (Mycobacterium tuberculosis, UniProt P9WHJ3); assay: Fluorescence Cell-Free Homogeneous Dose Retest to Identify Inhibitors of RecA-Intein Splicing Activity. [Related pubchem assays (depositor defined):AID2097, AID2223, AID489010, AID492950]; type: functional
T2 sequence (P9WHJ3 whole entry): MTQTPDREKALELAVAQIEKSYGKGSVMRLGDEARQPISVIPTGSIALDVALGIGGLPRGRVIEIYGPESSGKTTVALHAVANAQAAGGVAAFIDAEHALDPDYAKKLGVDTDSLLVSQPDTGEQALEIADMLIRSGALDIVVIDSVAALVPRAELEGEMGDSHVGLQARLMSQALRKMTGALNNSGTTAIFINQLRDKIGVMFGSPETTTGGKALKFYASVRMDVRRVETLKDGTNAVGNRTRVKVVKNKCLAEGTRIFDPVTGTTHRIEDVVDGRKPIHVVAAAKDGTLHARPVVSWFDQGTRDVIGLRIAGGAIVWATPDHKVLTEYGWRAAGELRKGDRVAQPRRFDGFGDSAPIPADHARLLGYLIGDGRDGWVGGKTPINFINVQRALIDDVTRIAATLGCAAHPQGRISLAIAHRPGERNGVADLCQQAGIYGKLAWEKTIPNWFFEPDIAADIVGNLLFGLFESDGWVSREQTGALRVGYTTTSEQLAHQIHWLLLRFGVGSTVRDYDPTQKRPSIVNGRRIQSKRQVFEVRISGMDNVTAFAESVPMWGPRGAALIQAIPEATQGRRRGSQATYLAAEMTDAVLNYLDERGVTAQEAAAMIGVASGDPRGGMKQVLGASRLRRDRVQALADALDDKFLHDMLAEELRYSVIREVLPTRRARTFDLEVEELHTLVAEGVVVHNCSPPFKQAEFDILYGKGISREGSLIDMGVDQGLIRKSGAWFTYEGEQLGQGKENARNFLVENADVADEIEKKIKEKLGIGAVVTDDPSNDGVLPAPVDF

[4] = target: T3, Replicative DNA helicase DnaB (Mycobacterium tuberculosis, UniProt P9WMR3); assay: DnaB intein splicing inhibitors, dose response, biochemical, cell-free fluorescence (AID 449749); type: functional
T3 sequence (P9WMR3 whole entry): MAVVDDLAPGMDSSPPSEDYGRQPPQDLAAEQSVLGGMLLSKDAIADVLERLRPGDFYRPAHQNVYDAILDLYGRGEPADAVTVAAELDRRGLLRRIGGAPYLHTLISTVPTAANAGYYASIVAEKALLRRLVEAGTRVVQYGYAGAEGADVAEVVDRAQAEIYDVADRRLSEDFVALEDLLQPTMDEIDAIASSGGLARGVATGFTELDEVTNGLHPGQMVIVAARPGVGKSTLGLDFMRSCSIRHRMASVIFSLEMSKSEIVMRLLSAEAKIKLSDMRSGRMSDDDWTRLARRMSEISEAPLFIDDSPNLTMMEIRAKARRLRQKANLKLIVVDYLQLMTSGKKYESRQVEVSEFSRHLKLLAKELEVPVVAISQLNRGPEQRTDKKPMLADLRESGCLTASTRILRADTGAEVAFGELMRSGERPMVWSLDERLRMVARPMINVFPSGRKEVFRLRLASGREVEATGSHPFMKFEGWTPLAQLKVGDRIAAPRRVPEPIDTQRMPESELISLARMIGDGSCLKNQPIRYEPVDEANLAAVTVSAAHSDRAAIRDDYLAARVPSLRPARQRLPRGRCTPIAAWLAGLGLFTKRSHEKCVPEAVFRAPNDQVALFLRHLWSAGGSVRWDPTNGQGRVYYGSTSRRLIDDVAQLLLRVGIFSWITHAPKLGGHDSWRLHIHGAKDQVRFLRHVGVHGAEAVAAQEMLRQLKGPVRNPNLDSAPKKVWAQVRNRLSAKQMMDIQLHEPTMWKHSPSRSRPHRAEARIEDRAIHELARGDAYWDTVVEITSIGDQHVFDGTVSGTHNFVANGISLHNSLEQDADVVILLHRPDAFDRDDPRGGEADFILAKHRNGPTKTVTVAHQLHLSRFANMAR

[5] = A Cell Based Secondary Assay To Explore Cytotoxicity of Compounds that Sensitize Mycobacterium Tuberculosis to Beta-Lactam Antibiotics.; type: functional
Streptokinase A = target: T4, Streptokinase A (Streptococcus pyogenes serotype M1, UniProt P10520); assay: S. pyogenes streptokinase expression inhibitors, potency, dose response, plasminogen activation absorbance, OD405 (AID 1914); type: functional, Streptococcus pyogenes M1 GAS;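 note: secreted streptokinase activity via plasminogen activation per viability signal from cell pellet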
T4 sequence (P10520 whole entry): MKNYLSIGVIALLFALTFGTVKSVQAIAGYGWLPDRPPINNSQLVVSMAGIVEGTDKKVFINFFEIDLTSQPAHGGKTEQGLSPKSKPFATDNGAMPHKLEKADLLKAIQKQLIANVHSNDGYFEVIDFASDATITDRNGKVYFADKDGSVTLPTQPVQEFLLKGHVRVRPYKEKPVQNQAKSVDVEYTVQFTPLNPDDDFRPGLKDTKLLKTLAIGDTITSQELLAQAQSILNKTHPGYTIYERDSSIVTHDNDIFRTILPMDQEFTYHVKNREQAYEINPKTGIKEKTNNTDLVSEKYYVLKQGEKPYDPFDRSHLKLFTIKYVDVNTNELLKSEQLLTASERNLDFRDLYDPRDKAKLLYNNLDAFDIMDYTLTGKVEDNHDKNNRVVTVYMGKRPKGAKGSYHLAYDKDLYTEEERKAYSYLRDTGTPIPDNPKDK

[6] = tested on: Streptococcus sp. 'group A'; assay: growth inhibition of control SK(-) GAS strain, dose response, counter-screen for streptokinase expression inhibitor project, luminescence, kanamycin, BacTiterGlo, confirmation (AID 1900); type: functional, organism-based
[7] = inhibitors of intracellular T. cruzi replication, confirmation, NIH3T3 host cells, beta-gal luminescence (AID 2044); type: functional, cell-based;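 note: intracellular parasites grown in NIH/3T3 mouse fibroblasts as host cells; luminescent beta-galactosidase reporter signal from transgenic T. cruzi replicating inside host cells; inhibitors lower the luminescence signal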
Streptococcus = assay: Group A Streptococcus viability loss, dose response, counter-screen for streptokinase expression inhibitor project, luminescence, BacTiterGlo (AID 1915); type: functional, organism-based;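 note: potency for reduction of bacterial viability or growth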
[8] = cytotoxicity toward NIH3T3 fibroblasts, dose response, counter-screen, cell-based, ATP luminescence, mouse fibroblasts (AID 2010); type: functional;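 note: cells exposed to compound for about 90 hours before reading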
Troponin, cardiac muscle = Troponin, cardiac muscle (Homo sapiens, UniProt P19429+P45379+P63316); assay: Fluorescence-based biochemical high throughput dose response assay for activators of the calcium sensitivity of cardiac Regulated Thin Filaments (RTF). [Related pubchem assays (depositor defined):AID493008, AID493018, AID504382, AID504383]; type: protein-complex assay
HEK293 [9] = assay: cells; type: functional, cell-based; conditions: Homo sapiens
HEK293 [10] = assay: cells; type: functional, cell-based; conditions: Homo sapiens; remark: listed apart in the source
HEK293 [11] = assay: NOD1 signaling inhibitors, primary screen, cell-based, luminescence, uHTS (AID 1578); type: functional; conditions: Homo sapiens
HEK293 [12] = assay: cells; type: functional, cell-based; conditions: Homo sapiens; remark: listed apart in the source
HEK293 [13] = assay: NOD2 signaling inhibitors in MDP-stimulated cells, cell-based, uHTS, luminescence (AID 2001); type: functional; conditions: Homo sapiens
[14] = target: T5, Carboxy-terminal domain RNA polymerase II polypeptide A small phosphatase 1 (Homo sapiens, UniProt Q9GZU7); assay: inhibitors of CTDSP1, concentration-response testing, biochemical assay, absorbance-based, actives from ultra-high-throughput screening (AID 540297); type: functional
T5 sequence (Q9GZU7 whole entry): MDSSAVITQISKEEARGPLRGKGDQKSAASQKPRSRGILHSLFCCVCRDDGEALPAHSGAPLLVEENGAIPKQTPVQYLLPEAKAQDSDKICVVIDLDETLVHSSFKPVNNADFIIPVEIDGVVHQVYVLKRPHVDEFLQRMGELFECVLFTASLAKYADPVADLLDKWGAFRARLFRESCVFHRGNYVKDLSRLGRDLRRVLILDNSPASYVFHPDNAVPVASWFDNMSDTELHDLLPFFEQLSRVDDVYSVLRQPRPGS

For `N#Cc1c2n(c3c(=O)n(Cc4ccccc4)cnc13)CCCC2`, the IC50 (Coagulation factor XII) was > 50 µM (inactive).

With `O=C(Nc1cccnc1)c1c(O)c2c(n(Cc3ccccc3)c1=O)CCCC2` the IC50 [1] was > 64 µM (inactive).

For `Cc1ccc(-n2ncc3c(O)ncnc32)c(C)c1`, the IC50 (Coagulation factor XII) was > 50 µM (inactive).

With `O=C(CSc1nc(-c2ccc(F)cc2)c[nH]1)NCc1ccco1` the EC50 [2] was > 50 µM (active).

With `O=C(c1[nH]ncc1-c1ccc(Cl)cc1)C1CO1` (stereo not drawn) the EC50 [3] was > 20 µM (inactive), the EC50 (Protein RecA) was 20.9 µM (active) and the AC50 [4] was 31.7 µM (active).

With `CCOC(=O)c1sc(NC(=O)Nc2ccc(Cl)cc2)cc1C` the CC50 [5] was 24.9 µM (active), the EC50 (Streptokinase A) was 26.1 µM (inconclusive) and the EC50 [6] was 6.12 µM (active). For the same compound, the EC50 [7] was 1.5 µM (active), the EC50 (Streptococcus) was 15.6 µM (active) and the EC50 [8] was > 60 µM (not active).

With `COC(=O)c1ccc(S(=O)(=O)N2CCC(O)CC2)n1C` the EC50 (Troponin, cardiac muscle) was > 71.4 µM (inactive).

With `CN1CCN(C2=CC(=O)OC23CCCCC3)CC1` the IC50 [1] was > 64 µM (inactive).

With `Cc1ccc(C(C)C)c(OCc2ccc(-c3nnco3)cc2)c1` the EC50 [3] was 14.6 µM (active), the IC50 (HEK293 [9]) was 15.2 µM (active) and the IC50 (HEK293 [10]) was > 20 µM (inactive). The EC50 (HEK293 [11]) was 13.2 µM (active), the IC50 (HEK293 [12]) was > 20 µM (inactive) and the IC50 (HEK293 [13]) was > 20 µM (inactive).

In the case of `CCOc1ccccc1NC(=O)N1CCC(NC(=O)c2cccc(C)c2)CC1`, the IC50 [14] is reported as 18.8 µM (active) and the IC50 [1] is reported as 58 µM (inactive).
